From patent US9920010B2, “CXCR7 receptor modulators” (IDORSIA PHARMACEUTICALS LTD, priority 2013, dated 2018)

Molecular target: T1, CXCR7 (Homo sapiens, UniProt P25106)
T1 construct: host or cells: CHO-K1 (PathHunter CHO-K1 CXCR7 b-arrestin cell line, stably transfected)
Test: PathHunter CHO-K1 CXCR7 b-arrestin recruitment assay (CXCR7 agonistic activity)
Format: cell-based
Details: PathHunter CHO-K1 CXCR7 b-arrestin cell line
Summary of the method: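 Stable CHO-K1 line with C-terminally ProLink-tagged CXCR7 and β-arrestin 2–EA fusion; β-arrestin recruitment restores β-gal activity, read by chemiluminescence after 1 h RT detection. Cells seeded 24 h, starved in OPTIMEM 3–4 h, exposed to compounds 90 min at 37 °C in HBSS/HEPES/BSA. Geometric-mean EC50 from repeated measurements.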

T1 sequence (P25106 whole entry): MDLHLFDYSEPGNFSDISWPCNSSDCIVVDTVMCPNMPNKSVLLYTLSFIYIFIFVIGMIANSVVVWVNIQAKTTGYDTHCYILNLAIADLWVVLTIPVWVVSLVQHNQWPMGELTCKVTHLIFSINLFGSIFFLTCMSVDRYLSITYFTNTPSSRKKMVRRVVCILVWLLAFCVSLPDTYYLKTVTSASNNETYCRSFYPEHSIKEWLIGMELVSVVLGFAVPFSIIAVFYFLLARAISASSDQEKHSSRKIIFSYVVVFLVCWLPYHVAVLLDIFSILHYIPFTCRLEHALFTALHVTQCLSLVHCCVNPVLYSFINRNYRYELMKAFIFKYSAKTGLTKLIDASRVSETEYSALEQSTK
T1 sequence (P32121 whole entry partner): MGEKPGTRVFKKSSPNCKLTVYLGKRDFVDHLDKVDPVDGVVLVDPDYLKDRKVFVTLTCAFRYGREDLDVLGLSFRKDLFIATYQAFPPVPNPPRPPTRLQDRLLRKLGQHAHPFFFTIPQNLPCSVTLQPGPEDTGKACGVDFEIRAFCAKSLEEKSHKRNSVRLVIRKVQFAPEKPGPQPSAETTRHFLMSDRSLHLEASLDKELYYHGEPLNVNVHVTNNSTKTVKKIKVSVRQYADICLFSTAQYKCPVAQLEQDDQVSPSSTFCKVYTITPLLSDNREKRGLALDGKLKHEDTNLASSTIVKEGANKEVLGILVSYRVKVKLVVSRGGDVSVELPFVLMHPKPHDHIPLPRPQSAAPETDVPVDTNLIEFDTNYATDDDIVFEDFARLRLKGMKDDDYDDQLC

EC50 | Compound
411 nM | CN(C)CCN(Cc1ccccc1Cl)C(=O)CNc1cc(C(F)(F)F)cc2c1CCN(CC1CC1)C2 [Example 295, N-(2-Chloro-benzyl)-2-(2-cyclopropylmethyl-7-trifluoromethyl-1,2,3,4-tetrahydro-isoquinolin-5-ylamino)-N-(2-dimethylamino-ethyl)-acetamide]
31 nM | 2-(2-Cyclopropylmethyl-1,2,3,4-tetrahydro-isoquinolin-5-ylamino)-N-isoxazol-5-ylmethyl-N-(2-trifluoromethyl-benzyl)-acetamide [Example 250]
9 nM | CCN1CCc2c(cccc2NCC(=O)N(CCN(C)C)Cc2ccccc2C(F)(F)F)C1 [compound 135, N-(2-Dimethylamino-ethyl)-2-(2-ethyl-1,2,3,4-tetrahydro-isoquinolin-5-ylamino)-N-(2-trifluoromethyl-benzyl)-acetamide]
72 nM | NS(=O)(=O)CCN(Cc1ccccc1C(F)(F)F)C(=O)CNc1cccc2c1CCN(CC1CC1)C2 [Example 233, 2-(2-Cyclopropylmethyl-1,2,3,4-tetrahydro-isoquinolin-5-ylamino)-N-(2-sulfamoyl-ethyl)-N-(2-trifluoromethyl-benzyl)-acetamide]
10 nM | CNCCN(Cc1ncccc1C(F)(F)F)C(=O)CNc1cccc2c1CCN(C(C)=O)C2 [compound 408, 2-(2-Acetyl-1,2,3,4-tetrahydro-isoquinolin-5-ylamino)-N-(2-methylamino-ethyl)-N-(3-trifluoromethyl-pyridin-2-ylmethyl)-acetamide]
4 nM | CNCCN(Cc1ccccc1C(F)(F)F)C(=O)CNc1cccc2c1CN(CC1CC1)CC2 [compound 384, 2-(2-Cyclopropylmethyl-1,2,3,4-tetrahydro-isoquinolin-8-ylamino)-N-(2-methylamino-ethyl)-N-(2-trifluoromethyl-benzyl)-acetamide]
250 nM | CCN1CCc2cccc(NCC(=O)N(Cc3ccccc3C(F)(F)F)C3CCOCC3)c2C1 [compound 519]
177 nM | CN(C)CCN(Cc1ccccc1C(F)(F)F)C(=O)CCc1cccc2c1CCN(C(=O)OC(C)(C)C)C2 [Example 99, 5-{2-[(2-Dimethylamino-ethyl)-(2-trifluoromethyl-benzyl)-carbamoyl]-ethyl}-3,4-dihydro-1H-isoquinoline-2-carboxylic acid tert-butyl ester]
311 nM | COCCN1CCc2c(cccc2NCC(=O)N(CCC(C)(C)O)Cc2ccccc2C(F)(F)F)C1 [Example 304, N-(3-Hydroxy-3-methyl-butyl)-2-[2-(2-methoxy-ethyl)-1,2,3,4-tetrahydro-isoquinolin-5-ylamino]-N-(2-trifluoromethyl-benzyl)-acetamide]
47 nM | COCCN1CCc2c(CCC(=O)N(CCN(C)C)Cc3ncccc3C(F)(F)F)cccc2C1 [Example 336, N-(2-Dimethylamino-ethyl)-3-[2-(2-methoxy-ethyl)-1,2,3,4-tetrahydro-isoquinolin-5-yl]-N-(3-trifluoromethyl-pyridin-2-ylmethyl)-propionamide]
230 nM | COCCN1CCc2c(cccc2NCC(=O)N(CCN2CCC(F)(F)CC2)Cc2ncccc2Cl)C1 [Example 305, N-(3-Chloro-pyridin-2-ylmethyl)-N-[2-(4,4-difluoro-piperidin-1-yl)-ethyl]-2-[2-(2-methoxy-ethyl)-1,2,3,4-tetrahydro-isoquinolin-5-ylamino]-acetamide]
257 nM | CCN1CCc2cccc(OC3(C(=O)N(CCN(C)C)Cc4ccccc4C(F)(F)F)CCC3)c2C1 [compound 549]
0.9 nM | CN(C)CCN(Cc1ncccc1Br)C(=O)CNc1cccc2c1C(C)(C)CN(CC1CC1)C2 [Example 575, N-(3-Bromo-pyridin-2-ylmethyl)-2-(2-cyclopropylmethyl-4,4-dimethyl-1,2,3,4-tetrahydro-isoquinolin-5-ylamino)-N-(2-dimethylamino-ethyl)-acetamide]
47 nM | O=C(CNc1cccc2c1CCN(CC1CC1)C2)N(CCN1CCC(F)(F)C1)Cc1ccccc1C(F)(F)F [Example 282, 2-(2-Cyclopropylmethyl-1,2,3,4-tetrahydro-isoquinolin-5-ylamino)-N-[2-(3,3-difluoro-pyrrolidin-1-yl)-ethyl]-N-(2-trifluoromethyl-benzyl)-acetamide]
423 nM | COCCN1CCc2c(cccc2NCC(=O)N(Cc2ncccc2Cl)CC(C)(C)O)C1 [Example 307, N-(3-Chloro-pyridin-2-ylmethyl)-N-(2-hydroxy-2-methyl-propyl)-2-[2-(2-methoxy-ethyl)-1,2,3,4-tetrahydro-isoquinolin-5-ylamino]-acetamide]
27 nM | O=C(CNc1cccc2c1CCN(CC1CC1)C2)N(Cc1ccccc1C(F)(F)F)C1CCC(O)CC1 (stereo not shown) [Example 222, 2-(2-Cyclopropylmethyl-1,2,3,4-tetrahydro-isoquinolin-5-ylamino)-N-(4-hydroxy-cyclohexyl)-N-(2-trifluoromethyl-benzyl)-acetamide]

EC50 | Compound
96 nM | O=C(/C=C/c1cccc2c1CCN(C(=O)[C@H]1C[C@H]1F)C2)N(CCN1CCC(F)(F)CC1)Cc1ncccc1Cl (racemic) [Example 332, rac-(E)-N-(3-Chloro-pyridin-2-ylmethyl)-N-[2-(4,4-difluoro-piperidin-1-yl)-ethyl]-3-[2-((1R*,2R*)-2-fluoro-cyclopropanecarbonyl)-1,2,3,4-tetrahydro-isoquinolin-5-yl]-acrylamide]
34 nM | CN(C)CCN(Cc1ccccc1C(F)(F)F)C(=O)CNc1cccc2c1CN(S(C)(=O)=O)CC2 [Example 544, N-(2-Dimethylamino-ethyl)-2-(2-methanesulfonyl-1,2,3,4-tetrahydro-isoquinolin-8-ylamino)-N-(2-trifluoromethyl-benzyl)-acetamide]
100 nM | CC(C)(O)CN(Cc1ncccc1Cl)C(=O)CNc1cccc2c1CN(CC1CC1)CC2 [compound 487]
3 nM | CN(C)CCN(Cc1ncccc1C(F)(F)F)C(=O)CNc1cccc2c1CN(CC1CC1)CC2 [compound 566, 2-(2-Cyclopropylmethyl-1,2,3,4-tetrahydro-isoquinolin-8-ylamino)-N-(2-dimethylamino-ethyl)-N-(3-trifluoromethyl-pyridin-2-ylmethyl)-acetamide]
2 nM | CC1c2cccc(NCC(=O)N(CCN(C)C)Cc3ccccc3C(F)(F)F)c2CCN1CC1CC1 (racemic) [Example 211, rac-2-((2-(Cyclopropylmethyl)-1-methyl-1,2,3,4-tetrahydroisoquinolin-5-yl)amino)-N-(2-(dimethylamino)ethyl)-N-(2-(trifluoromethyl)benzyl)acetamide]
52 nM | O=C(CNc1cccc2c1CCN(CC1CC1)C2)N(CCC(F)(F)F)Cc1ccccc1C(F)(F)F [Example 224, 2-(2-Cyclopropylmethyl-1,2,3,4-tetrahydro-isoquinolin-5-ylamino)-N-(2-trifluoromethyl-benzyl)-N-(3,3,3-trifluoro-propyl)-acetamide]
31 nM | CCN1CCc2cccc(NCC(=O)N(CCN(C)C)Cc3ccccc3Cl)c2C1 [compound 500, N-(2-Chloro-benzyl)-N-(2-dimethylamino-ethyl)-2-(2-ethyl-1,2,3,4-tetrahydro-isoquinolin-8-ylamino)-acetamide]
264 nM | CCN1Cc2c(NCC(=O)N(CCN(C)C)Cc3ccccc3Cl)cccc2C(C)(C)C1 [compound 196]
445 nM | COCCN1CCc2c(CCC(=O)N(Cc3ncccc3Cl)CC(C)(C)O)cccc2C1 [Example 347, N-(3-Chloro-pyridin-2-ylmethyl)-N-(2-hydroxy-2-methyl-propyl)-3-[2-(2-methoxy-ethyl)-1,2,3,4-tetrahydro-isoquinolin-5-yl]-propionamide]
20 nM | CCN1CCc2c(cccc2NCC(=O)N(CCN(C)C)Cc2ccccc2Cl)C1 [compound 133, N-(2-Chloro-benzyl)-N-(2-dimethylamino-ethyl)-2-(2-ethyl-1,2,3,4-tetrahydro-isoquinolin-5-ylamino)-acetamide]
8 nM | CCC(=O)N1CCc2c(cccc2NCC(=O)N(CCNC)Cc2ncccc2C(F)(F)F)C1 [compound 409, N-(2-Methylamino-ethyl)-2-(2-propionyl-1,2,3,4-tetrahydro-isoquinolin-5-ylamino)-N-(3-trifluoromethyl-pyridin-2-ylmethyl)-acetamide]
8 nM | CN(C)CCN(Cc1ncccc1Br)C(=O)CNc1cccc2c1CN(C1CCC1)CC2 [compound 456, N-(3-Bromo-pyridin-2-ylmethyl)-2-(2-cyclobutyl-1,2,3,4-tetrahydro-isoquinolin-8-ylamino)-N-(2-dimethylamino-ethyl)-acetamide]
126 nM | CN(C)CCN(Cc1ccccc1)C(=O)CNc1cccc2c1CCN(Cc1ccco1)C2 [compound 118]
230 nM | CN(C)CCN(Cc1ccccc1)C(=O)CNc1cccc2c1CCN(C(=O)OC(C)(C)C)C2 [Example 8, 5-({[Benzyl-(2-dimethylamino-ethyl)-carbamoyl]-methyl}-amino)-3,4-dihydro-1H-isoquinoline-2-carboxylic acid tert-butyl ester]
8 nM | CNCCN(Cc1ncccc1C(F)(F)F)C(=O)CNc1cccc2c1CCN(C(=O)COC)C2 [compound 413, 2-[2-(2-Methoxy-acetyl)-1,2,3,4-tetrahydro-isoquinolin-5-ylamino]-N-(2-methylamino-ethyl)-N-(3-trifluoromethyl-pyridin-2-ylmethyl)-acetamide]
140 nM | CC(C)CCN(Cc1ccccc1)C(=O)CNc1cccc2c1CN(C)CC2 [compound 183]

Compound | EC50
CC(C)(O)CN(Cc1ncccc1Br)C(=O)CNc1cccc2c1CN(CC1CC1)CC2 [compound 488] | 91 nM
CN(C)CCN(Cc1ccccc1)C(=O)COc1cccc2c1CN(C)CC2 [Example 201, N-Benzyl-N-(2-dimethylamino-ethyl)-2-(2-methyl-1,2,3,4-tetrahydro-isoquinolin-8-yloxy)-acetamide] | 27 nM
